Test system: B16 cells stably expressing GFP-PEST
Test: Screening for siRNA knockdown: delivery of GFP siRNA for knockdown of GFP in B16 GFP cells
Format: cell-based
Settings: for Able to transfect?: peptide/GFP siRNA particle
Experimental: Knockdown of B16 cells stably expressing GFP-PEST allowed quick screening for effective siRNA knockdown of GFP expression because the PEST sequence shortens GFP half-life from 26 to 10 hours. Melittin derivatives were chosen based on modifications designed to decrease cytotoxicity as well as improve interactions with oligonucleotides. These peptides were screened for their ability to deliver GFP siRNA for the knockdown of GFP in B16 GFP cells (Table 1, FIG. 1).
The melittin derivatives were formulated by Genscript (Piscataway, N.J.), dissolved at 10 mM in RNAse/DNAse free water (Sigma, St. Louis, Mo.) and stored in 4 μl aliquots at −80° C. before use. Transfection complexes were prepared by diluting the peptide 1:200 in phosphate buffered saline (PBS, Sigma), vortexed for 30 seconds, followed by addition of the appropriate amount of siRNA (stock concentration of 10 μM in 1× siRNA buffer (Thermo)) and incubated for 40 minutes at 37° C. with shaking in an Eppendorf Thermomixer R. Resulting nanoparticles were analyzed for siRNA incorporation by resolution on a 12% polyacrylamide gel followed by ethidium bromide staining. Dynamic light scattering (DLS) and zeta potential measurements were performed on a Zeta Plus particle sizer (Brookhaven Instruments, Newton, Mass.). Serum stability analysis was performed by incubating freshly formed peptide/siRNA nanoparticles in 10 mg/ml Human Serum Albumin (HSA, Sigma) overnight followed by DLS and zeta potential measurements.
B16F10 and RAW264.7 (ATCC, Manassas, Va.) cell lines can be maintained under standard cell culture conditions (37° C. and 5% CO2 in a humidified incubator) in DMEM (Gibco, Carlsbad, Calif.) supplemented with 10% fetal bovine serum (Gibco). B16F10 cells stably expressing GFP can be produced as follows. B16F10 can be transfected (Lipofectamine 2000, Invitrogen) with a fusion of EGFP (pEGFP-N1, Clontech) and the PEST sequence from mouse ornithine decarboxylase (S421-V461) in pEF6V5HisTOPO (Invitrogen). Cells are selected for four rounds with cell sorting by flow cytometry without antibiotic selection. Typically, an aliquot of cells can be maintained in continuous culture for a month without a noticeable change in EGFP expression level. Human umbilical vein endothelial cells (HUVECs) can be purchased from Lifeline Technologies (Frederick, Md.) and cultured in VascuLife Basal Medium (Lifeline Technologies) supplemented with 5 ng/mL EGF, 5 ng/ml bFGF, 15 ng/mL IGF-1, 50 μg/mL ascorbic acid, 1 μg/mL hydrocortisone hem isuccinate, 0.75 U/mL Heparin Sulfate, 10 mM L-glutamine, 2% fetal bovine serum in accordance with manufacturer instructions.
For transfection, cells can be plated in 6 well plates 12 hours before transfection and cultured under standard cell culture conditions. Peptide/siRNA nanoparticles are prepared and incubated with cells for 4 hours in a final volume of 1 mL Optimem I (Gibco) or appropriate media supplemented with 10% FBS. Transfections are scaled accordingly for cells plated in 12 well plates based on cell culture surface area. After transfection, cells are washed twice with PBS and incubated with standard cell culture medium for another 24-72 hours before analysis. Lipofectamine 2000 can be used in accordance with the manufacturer's protocol. Briefly, Lipofectamine 2000 is diluted in Optimem I to a final concentration of 8.4 μg/ml and incubated at room temperature for 15 minutes. siRNA is then added to the diluted lipid and incubated for another 40 minutes before dilution to 1 mL total volume with Optimem I for transfection. Suitable eGFP siRNA can be purchased from Sigma. siGENOME mouse MAPK9 siRNA1, siGENOME mouse STAT3 siRNA2, and siGENOME human STAT3 siRNA2 gene specific siRNAs can be purchased from Dharmacon (Lafayette, Colo.). Scrambled siRNA can be purchased from Qiagen (Valencia, Calif.).

[1] = charge ratio (+/−) 6:1 (peptide/siRNA 28:1 to 62:1 depending on peptide)
[2] = charge ratio (+/−) 12:1 (peptide/siRNA 56:1 to 124:1 depending on peptide)
[3] = charge ratio (+/−) 24:1 (peptide/siRNA 112:1 to 248:1 depending on peptide)
[4] = ratio of peptide:polynucleotide between 50:1 and 200:1

| Molecule | toxicity to cells in the tested concentration range (B16 GFP cells, concentration range of the screen) | Able to transfect? [1] | Able to transfect? [2] | Able to transfect? [3] | ability to transfect (ratio of 50:1) | ability to transfect (ratio of peptide:polynucleotide less than 50:1) | GFP knockdown [4] | ability to transfect [4] |
| --- | --- | --- | --- | --- | --- | --- | --- | --- |
| CC[C@H](C)[C@H](NC(=O)CN)C(=O)NCC(=O)N[C@@H](C)C(=O)N[C@H](C(=O)N[C@@H](CC(C)C)C(=O)N[C@@H](CCCCN)C(=O)N[C@H](C(=O)N[C@@H](CC(C)C)C(=O)N[C@H](C(=O)N[C@H](C(=O)NCC(=O)N[C@@H](CC(C)C)C(=O)N1CCC[C@H]1C(=O)N[C@@H](C)C(=O)N[C@@H](CC(C)C)C(=O)N[C@H](C(=O)N[C@@H](CO)C(=O)N[C@@H](Cc1c[nH]c2ccccc12)C(=O)N[C@H](C(=O)N[C@@H](CCCCN)C(=O)N[C@@H](CCCNC(=N)N)C(=O)N[C@@H](CCCCN)C(=O)N[C@@H](CCCNC(=N)N)C(=O)N[C@@H](CCC(N)=O)C(=O)N[C@@H](CCC(N)=O)C(N)=O)[C@@H](C)CC)[C@@H](C)CC)[C@@H](C)O)[C@@H](C)O)C(C)C)C(C)C [Melittin] | too toxic | No | Toxic | Toxic |  |  |  |  |
| VLTTGLPALISWIKRKRQHRWRRRR [Peptide 5RWRH] |  | Yes | No | No | did not work | able to transfect |  |  |
| VLTTGLPALISWIKRKRQQC [Peptide 5C] |  | No | No | No |  |  |  |  |
| VLTTGLPALISWIKRKRQQRWRRRR [Peptide 5RWR] |  | No | No | No |  |  |  |  |
| VLTTGLPALISWIRRRHRRHC [Peptide 5RHH] |  | Yes | Yes | Yes |  |  | exhibited GFP knockdown | able to transfect |
